Measured values: patent EP4803080A1, “METHOD FOR TREATING LEUKEMIA” (Shenzhen TargetRx Co., Ltd., priority 2023, dated 2025)
“And” between values parts separate entries of the source, which are not always exact repeats. Identical values can stand only once. Like-named read-outs stand apart in the source and are kept apart here.

Key:
[1] = Study of blood-brain ratio after single oral dose; assay type: in vivo; conditions: male SD rats
Protocol: A total of 15 male SD rats (3 per time point) were administered a single oral dose of Compound A via oral gavage at 50 mg/kg, with the vehicle being 0.5% sodium carboxymethyl cellulose (CMC-Na). The animals were not fasted. Whole blood, cerebrospinal fluid, and brain tissue were collected at 0.5, 2, 4, 8, and 24 hours post-dose. Whole blood samples (about 0.3 mL) were collected via puncture of the jugular venous sinus and transferred to dipotassium ethylenediaminetetraacetate (K2EDTA) anticoagulant tubes, mixed thoroughly, placed on wet ice, and centrifuged within 30 minutes for 5 minutes (6000 rpm, 4°C) to obtain plasma. Cerebrospinal fluid (about 0.10 mL) was collected via puncture of the cerebellomedullary cistern and placed in collection tubes. Brain tissue samples were rinsed with saline, dried with filter paper, blood vessels were removed, and the weight was weighed and recorded. Brain tissue was homogenized with 9 times its weight of homogenization buffer (30% MeOH, containing 0.2% FA/70% 10 mM PBS). All samples were stored in a freezer at -80°C or lower until LC-MS analysis. PK parameters were calculated using the non-compartmental model in WinNonlin and the compound concentrations in each matrix.

[2] = test system: chronic phase (CP) chronic myeloid leukemia (CML); assay: Phase I dose escalation and dose expansion clinical trial: efficacy in CML-CP subjects; assay type: in vivo, humans
Excerpt: This study is a single-arm, open-label, dose-escalation and dose-expansion Phase I clinical trial.
The dose-escalation phase of this trial consists of about 8 dose groups, with oral administration under fasting conditions. Subjects in all dose groups will receive a single dose on Day 1 (D1), followed by pharmacokinetic (PK) and tolerability observations. […] After entering the multiple-dose period, subjects in the first dose group will initially receive twice-daily (BID) dosing (if PK data from the single-dose period are available, the dosing frequency during the multiple-dose period may be adjusted based on the PK data). The dosing frequency for subjects in subsequent dose groups after entering the multiple-dose period will be determined based on available PK and tolerability data. Throughout the trial, dosing frequency for all subjects may be adjusted based on continuously updated safety and PK data.
A continuous reassessment method (CRM) based on the principle of the escalation with overdose control (EWOC) design will be used to recommend the next specific dose for each dose escalation, thereby completing dose escalation and determining the maximum tolerated dose (MTD). If both the investigator and sponsor believe that higher dose groups may offer better efficacy and manageable safety, the EWOC-based CRM method may be used to explore higher doses. All enrolled subjects will receive long-term treatment with the test drug and undergo evaluations for safety, tolerability, and preliminary efficacy.
After obtaining certain research data from the dose-escalation phase, the investigator may comprehensively consider safety, efficacy, and other information to decide whether to enroll additional subjects at the MTD and/or lower dose levels to determine the recommended Phase II dose (RP2D). Two to four suitable dosing regimens will be selected for expansion in the target population (including subjects enrolled at the target dose levels during the escalation phase).
A total of 8 dose groups were established: 10 mg bid, 20 mg bid, 40 mg bid, 80 mg bid, 40 mg qd, 80 mg qd, 160 mg qd, and 240 mg qd.
The dose expansion phase was conducted in the following 3 cohorts: • Cohort 1: Subjects with chronic phase (CP) chronic myeloid leukemia (CML) who had previously received at least ≥2 different TKIs and were T315I-negative. A total of 3 dose groups were established: 40 mg qd, 80 mg qd, and 240 mg qd; • Cohort 2: Subjects with chronic phase (CP) chronic myeloid leukemia (CML) who have previously received ≥1 TKI and were T315I-positive. A total of 2 dose groups were established: 40 mg qd and 240 mg qd; • Cohort 3: Subjects with accelerated phase (AP) chronic myeloid leukemia (CML) who have previously received ≥1 TKI, regardless of T315I positivity. A total of 1 dose group was established: 240 mg qd.

[3] = PO 50 mg/kg single dose, 0.5 hr, individual rat, 50 mg/kg
[4] = PO 50 mg/kg single dose, 2 hr, individual rat, 50 mg/kg
[5] = PO 50 mg/kg single dose, 4 hr, individual rat, 50 mg/kg
[6] = PO 50 mg/kg single dose, 8 hr, individual rat, 50 mg/kg
[7] = PO 50 mg/kg single dose, 24 hr, individual rat, 50 mg/kg
[8] = CML-CP subjects previously treated with ponatinib, olverembatinib, asciminib, and/or HS-10382, as of June 2, 2024
[9] = CML-CP subjects, all doses, 58 evaluable, as of August 24, 2023
[10] = CML-CP subjects, all doses, as of August 24, 2023
[11] = CML-CP subjects, as of June 2, 2024
[12] = CML-CP, 10 mg BID, 2 evaluable subjects, as of August 24, 2023
[13] = CML-CP, 20 mg BID, 3 evaluable subjects, as of August 24, 2023
[14] = CML-CP, 40 mg BID, 1 evaluable subject, as of August 24, 2023
[15] = CML-CP, 40 mg QD, 15 evaluable subjects, as of August 24, 2023
[16] = CML-CP, 40 mg/day Total, 18 evaluable subjects, as of August 24, 2023
[17] = CML-CP, 80 mg BID, 3 evaluable subjects, as of August 24, 2023
[18] = CML-CP, 80 mg QD, 2 evaluable subjects, as of August 24, 2023
[19] = CML-CP, 80 mg/day Total, 3 evaluable subjects, as of August 24, 2023
[20] = CML-CP, 160 mg QD, 1 evaluable subject, as of August 24, 2023
[21] = CML-CP, 160 mg/day Total, 4 evaluable subjects, as of August 24, 2023
[22] = CML-CP, 240 mg QD, 31 evaluable subjects, as of August 24, 2023
[23] = CML-CP, Total, all dose groups, 58 evaluable subjects, as of August 24, 2023

## O=C(Nc1ccc(OC(F)(F)Cl)cc1)c1cnc(N2CC[C@@H](F)C2)c(-c2cnccn2)c1 [Compound A, (R)-N-(4-(chlorodifluoromethoxy)phenyl)-6-(3-fluoropyrrolidin-1-yl)-5-(pyrazin-2-yl)nicotinamide]
[1]; [3]
  Brain Concentration (ng/g) Concentration: 302 ng/g and 381 ng/g
  Brain/Blood Ratio Individual Value: 0.376 and 0.578
[1]; [4]
  Brain Concentration (ng/g) Concentration: 1360 ng/g and 1070 ng/g
  Brain/Blood Ratio Individual Value: 0.410 and 0.502
[1]; [5]
  Brain Concentration (ng/g) Concentration: 1190 ng/g and 1310 ng/g
  Brain/Blood Ratio Individual Value: 0.478 and 0.466
[1]; [6]
  Brain Concentration (ng/g) Concentration: 452 ng/g and 1700 ng/g and 994 ng/g
  Brain/Blood Ratio Individual Value: 0.447 and 0.462
[1]; [7]
  Brain Concentration (ng/g) Concentration: 40.4 ng/g and 10.2 ng/g
  Brain/Blood Ratio Individual Value: 0.488 and 0.990
[1]; male, SD, rat, brain, po, 50 mg/kg, PO 50 mg/kg single dose, 0.5 hr, individual rat, read-out: Brain Concentration (ng/g) Concentration
  concentration at 0.5 h: 415 ng/g
[1]; male, SD, rat, brain, po, 50 mg/kg, PO 50 mg/kg single dose, 0.5 hr, mean of 3 rats, read-out: Brain Concentration (ng/g) Mean
  concentration at 0.5 h: 366 ng/g
[1]; male, SD, rat, brain, po, 50 mg/kg, PO 50 mg/kg single dose, 2 hr, individual rat
  concentration at 2 h: 961 ng/g
[1]; male, SD, rat, brain, po, 50 mg/kg, PO 50 mg/kg single dose, 4 hr, individual rat
  concentration at 4 h: 880 ng/g
[1]; male, SD, rat, brain, po, 50 mg/kg, PO 50 mg/kg single dose, 24 hr, mean (one rat NA)
  concentration at 24 h: 16.9 ng/g
[1]; male, SD, rat, brain/plasma, po, 50 mg/kg, PO 50 mg/kg single dose, 0.5 hr, individual rat
  Kp at 0.5 h: 0.624
[1]; male, SD, rat, brain/plasma, po, 50 mg/kg, PO 50 mg/kg single dose, 2 hr, individual rat
  Kp at 2 h: 0.439
[1]; male, SD, rat, brain/plasma, po, 50 mg/kg, PO 50 mg/kg single dose, 4 hr, individual rat
  Kp at 4 h: 0.374
[1]; male, SD, rat, brain/plasma, po, 50 mg/kg, PO 50 mg/kg single dose, 8 hr, individual rat
  Kp at 8 h: 0.511
[1]; male, SD, rat, brain/plasma, po, 50 mg/kg, single oral dose 50 mg/kg, 0.5 to 24 hours, read-out: brain-to-plasma concentration ratio
  Kp: 0.44 to 0.74
[1]; rat, brain, single oral dose 50 mg/kg
  Cmax: 1130 ng/g
[1]; single oral dose 50 mg/kg
  AUC0-last in the brain: 16346 ng·h/g
[2]; [8]
  18-month cumulative incidence of CCyR: 17%
  18-month cumulative incidence of MCyR: 32%
[2]; CML-CP subjects, all doses, 35 evaluable, as of August 24, 2023
  CHR: 91.4%
[2]; [9]
  CCyR: 34.5%
  MCyR: 39.7%
[2]; CML-CP subjects, all doses, 62 evaluable, as of August 24, 2023
  MMR: 16.1%
[2]; [10]
  median time to CCyR: 2.81 (2.76, 3.30) months
  median time to MCyR: 2.83 (2.76, 3.68) months
  median time to MMR: 2.81 (2.76, 5.49) months
[2]; CML-CP subjects, 49 evaluable, as of June 2, 2024
  CHR within 3 treatment cycles: 82%
[2]; [11]
  18-month cumulative incidence rate for CCyR: 40%
  18-month cumulative incidence rate for MCyR: 52%
  18-month cumulative incidence rate for MMR: 26%
[2]; CML-CP, 10 mg BID, 0 evaluable subjects, as of August 24, 2023
  CHR: 0 n (%)
[2]; [12]
  CCyR: 1 (50.0) n (%)
  MCyR: 2 (100) n (%)
  MMR: 1 (50.0) n (%)
[2]; CML-CP, 20 mg BID, 2 evaluable subjects, as of August 24, 2023
  CHR: 2 (100) n (%)
[2]; [13]
  CCyR: 2 (66.7) n (%)
  MCyR: 2 (66.7) n (%)
  MMR: 0 n (%)
[2]; [14]
  CCyR: 0 n (%)
  CHR: 1 (100) n (%)
  MCyR: 0 n (%)
  MMR: 0 n (%)
[2]; CML-CP, 40 mg QD, 7 evaluable subjects, as of August 24, 2023
  CHR: 6 (85.7) n (%)
[2]; [15]
  CCyR: 5 (33.3) n (%)
  MCyR: 5 (33.3) n (%)
[2]; CML-CP, 40 mg QD, 17 evaluable subjects, as of August 24, 2023
  MMR: 3 (17.6) n (%)
[2]; CML-CP, 40 mg/day Total, 9 evaluable subjects, as of August 24, 2023
  CHR: 8 (88.9) n (%)
[2]; [16]
  CCyR: 7 (38.9) n (%)
  MCyR: 7 (38.9) n (%)
[2]; CML-CP, 40 mg/day Total, 20 evaluable subjects, as of August 24, 2023
  MMR: 3 (15.0) n (%)
[2]; CML-CP, 80 mg BID, 2 evaluable subjects, as of August 24, 2023
  CHR: 2 (100) n (%)
[2]; [17]
  CCyR: 1 (33.3) n (%)
  MCyR: 1 (33.3) n (%)
  MMR: 1 (33.3) n (%)
[2]; [18]
  CCyR: 1 (50.0) n (%)
  MCyR: 1 (50.0) n (%)
  MMR: 0 n (%)
[2]; CML-CP, 80 mg QD, 3 evaluable subjects, as of August 24, 2023
  CHR: 3 (100) n (%)
[2]; [19]
  CCyR: 1 (33.3) n (%)
  MCyR: 1 (33.3) n (%)
  MMR: 0 n (%)
[2]; CML-CP, 80 mg/day Total, 4 evaluable subjects, as of August 24, 2023
  CHR: 4 (100) n (%)
[2]; [20]
  CCyR: 1 (100) n (%)
  CHR: 1 (100) n (%)
  MCyR: 1 (100) n (%)
  MMR: 1 (100) n (%)
[2]; CML-CP, 160 mg/day Total, 3 evaluable subjects, as of August 24, 2023
  CHR: 3 (100) n (%)
[2]; [21]
  CCyR: 2 (50.0) n (%)
  MCyR: 2 (50.0) n (%)
  MMR: 2 (50.0) n (%)
[2]; CML-CP, 240 mg QD, 19 evaluable subjects, as of August 24, 2023
  CHR: 17 (89.5) n (%)
[2]; [22]
  CCyR: 9 (29.0) n (%)
  MCyR: 11 (35.5) n (%)
[2]; CML-CP, 240 mg QD, 33 evaluable subjects, as of August 24, 2023
  MMR: 4 (12.1) n (%)
[2]; CML-CP, Total, all dose groups, 35 evaluable subjects, as of August 24, 2023
  CHR: 32 (91.4) n (%)
[2]; [23]
  CCyR: 20 (34.5) n (%)
  MCyR: 23 (39.7) n (%)
[2]; CML-CP, Total, all dose groups, 62 evaluable subjects, as of August 24, 2023
  MMR: 10 (16.1) n (%)
